Consider five compounds from patent US11162117B2, “Whole-cell catalytic system and applications thereof” (National Taiwan University, priority 2018, dated 2021).

Holding throughout (assay type): cell-based, Marinobacter aquaeoli VT8
In data set [1] the test system is AlkR protein. Kind of data set: Alkane induction assay: mRFP reporter in E. coli JM109 carrying psb4K5-alkR-mRFP plasmid (flow cytometry). The protocol:
(§1) E. coli JM109 carrying the psb4K5-alkR-mRFP plasmid was cultured overnight at 37° C. and 125-150 rpm in 3 mL of LB medium containing 50 μg/mL kanamycin. The overnight culture was diluted 1000-fold in LB medium in a 100 mL Hinton's flask and cultured at 37° C. To induce the expression of red fluorescent protein, 1% (v/v) of the various indicated hydrocarbons was added to the culture when the absorbance at 600 nm (O.D.600) reached about 0.6. At 0, 3, 6, 9, and 12 hours after the induction, 500 μL of the abovementioned bacterial culture was collected and centrifuged to obtain a cell pellet, which was washed twice and resuspended with phosphate buffer saline (PBS). Flow cytometry (BD FACSCanto II) was used to measure the mean fluorescence intensity of the cells and the distribution of cells with different fluorescence intensities (an excitation wavelength at 532 nm and an emission wavelength at 588 nm). For the E. coli JM109 that additionally carrying an expression vector of an alkane transporter, rhamnose was first added to the bacterial culture at an O.D.600 of about 0.6, and 1% (v/v) of the various indicated hydrocarbons was added three hours thereafter.
First, E. coli JM109 was transformed with the psb4K5-alkR-mRFP plasmid shown in FIG. 1, which was a reporter plasmid including the alkR gene, the gene encoding the red fluorescent protein, and the promoter thereof. […] At 0, 3, 6, 9, and 12 hours after the induction, the mean fluorescence intensity and fluorescence distribution of E. coli cells were measured by flow cytometry. […]
It was also studied whether the medium-chain or long-chain alkane terminal oxidation products would inhibit the activating effect of the AlkR protein on gene expression. In the alkane induction assay using n-dodecane as the inducer, 0.1% (v/v) or 1% (v/v) 1-dodecanol was additionally added to the E. coli culture, and the mean fluorescence intensity of the E. coli cells was measured at 6 and 12 hours after the induction, with the results shown in FIG. 10.
(A flow cytometer gives signals particle by particle.)

Data set [2] has as its system CYP153A operon. Briefly: CYP153A expression in recombinant E. coli carrying pBBR1-CYPLR plasmid (SDS-PAGE, CO difference spectroscopy). As to conditions: 1% (v/v) methyl laurate, pBBR1-CYPLR vs pBBR1-alkR plasmid. The protocol:
E. coli JM109 carrying the pBBR1-CYPLR plasmid or the pBBR1-alkR plasmid was overnight cultured at 37° C. and 125-150 rpm in 3 mL of LB medium containing 50 μg/mL kanamycin. The overnight culture was diluted 1000-fold in 3 mL of LB medium containing 50 μg/mL kanamycin and cultured at 37° C. 1% (v/v) methyl laurate was added to the culture at an O.D.600 of about 0.6 and a further incubation at 30° C. was carried out for 12 hours. The cell pellet obtained by centrifuging the abovementioned bacterial culture was washed and resuspended with PBS, and then subjected to protein expression analysis by sodium dodecyl sulfate polyacrylamide gel electrophoresis (SDS-PAGE) or carbon monoxide (CO) difference spectroscopy.
Samples of bacterial cells were mixed with sample buffer (50 mM Tris-HCl, pH 6.8, 100 mM dithiothreitol (DTT), 2% SDS, 0.1% bromophenol blue, 10% glycerol) and boiled for 10 minutes. […]
It was studied whether CYP153A expression in the recombinant E. coli carrying the reconstructed CYP153A operon from M. aquaeoli VT8 would be induced by medium-chain or long-chain fatty acid methyl esters. […] At 12 hours after the induction, the expression of CYP153A was analyzed by SDS-PAGE, and the protein molecular size and activity of the cytochrome P450 consisting of CYP153A, ferredoxin, and ferredoxin reductase were verified by carbon monoxide difference spectroscopy.

In data set [3] the test system is AlkR protein. Kind of data set: Alkane induction assay in E. coli JM109 carrying psb4K5-alkR-mRFP and rhamnose-inducible psb3C5-rha-weak alkL (or mock psb3C5-rha) plasmid. As to conditions: for expression of red fluorescent protein (mean fluorescence intensity) compared to no rhamnose addition: AlkL plasmid, 0.01% (w/v) rhamnose then 1% (v/v) n-tetradecane, 6 h after induction, FIG. 14. The protocol:
as §1
This characteristic might prevent the recombinant microorganism including the CYP153A operon from being induced by the medium-chain or long-chain alkanes or medium-chain or long-chain fatty acid methyl esters and producing the medium-chain or long-chain alkane terminal oxidation products. In order to promote the entry of medium-chain or long-chain alkanes into cells, the recombinant microorganism of the present invention may further express an alkane transporter. The AlkL protein of P. putida GPol is an exemplary alkane transporter used in this example to investigate the effects of alkane transporter expression on the uptake of medium-chain or long-chain alkanes or medium-chain or long-chain fatty acid methyl esters by the recombinant microorganisms. The AlkL protein is cytotoxic and its expression should be tightly regulated. […] At 6 hours after the induction, the mean fluorescence intensity of E. coli cells was measured by flow cytometry.
The AlkL protein was also tested for the ability to promote the uptake of various medium-chain or long-chain alkanes and methyl laurate by microbial cells. […] After 3 hours of incubation, 1% (v/v) n-octane, n-decane, n-dodecane, n-tetradecane, n-hexadecane, n-octadecane, or methyl laurate was added to induce the expression of red fluorescent protein, and the mean fluorescence intensity and fluorescence distribution of E. coli cells were measured by flow cytometry 6 hours after the induction. […]

In data set [4] the test system is CYP153A operon. Kind of data set: n-Octane-induced 1-octanol production by recombinant E. coli carrying pBBR1-CYPLR plasmid (gas chromatography). As to conditions: 1% (v/v) n-octane; 12 h after induction; pBBR1-CYPLR vs pBBR1-alkR plasmid; FIG. 13. The protocol: The medium-chain or long-chain alkane terminal oxidation product in the sample was analyzed qualitatively and quantitatively by gas chromatography. The analysis of alkanols and alkanediols was described as follows, with 1-octanol taken as example. 10 mg of 1,8-octanediol was added as an internal standard to 10 mL of the collected bacterial culture, and the mixture was extracted twice with double volumes of ethyl acetate. […] The obtained product was analyzed for composition by Varian CP-3800 gas chromatograph equipped with a DB-5 column and a flame ionization detector (FID). […] Alkanoic acids, alkanedioic acids, or alcohol acids were analyzed similarly as described above. In one embodiment of the present invention, 12-hydroxydodecanoic acid was analyzed using dodecanol as the internal standard.
It was studied whether the recombinant E. coli carrying the reconstructed CYP153A operon from M. aquaeoli VT8 would be induced to express the cytochrome P450 with oxidative activity and produce medium-chain or long-chain alkane terminal oxidation products in response to medium-chain or long-chain alkanes. […] At 12 hours after the induction, the production of 1-octanol in the bacterial culture was analyzed by gas chromatography.

Turning to `CCCCCCCCCCCCO` [1-dodecanol], in the data set on AlkR protein [1] (0.1% or 1% (v/v) 1-dodecanol added with 1% n-dodecane inducer, 6 and 12 h, FIG. 10), the “inhibition of n-dodecane-induced red fluorescent protein expression” value is given as “did not inhibit the expression of red fluorescent protein”.

On to `CCCCCCCCCCCC(=O)OC` [methyl laurate], for which the “expression of red fluorescent protein (mean fluorescence intensity) relative to control group” value with AlkR protein [1] (1% (v/v) inducer, 0-12 h, recombinant E. coli JM109, vs untreated control, FIG. 8) is listed as “induced the expression of red fluorescent protein”. Also, the “whole-cell carbon monoxide difference spectrum (400-500 nm)” value in the data set with CYP153A operon [2] (12 h, FIGS. 12A-12B) is reported as “absorption peak at about 450 nm”. The “CYP153A expression by SDS-PAGE” value in the data set on CYP153A operon [2] (12 h after induction, FIG. 11) was “expressed the CYP153A”. Moreover, the “expression of red fluorescent protein in control groups (mock vector) vs non-induced groups” value with AlkR protein [3] (psb3C5-rha mock vector, 0.01% rhamnose 3 h then 1% (v/v) inducer 6 h, FIG. 15) is “induce significantly more expression of the red fluorescent protein”.

`CCCCCCCC` [n-octane]: the “number of E. coli cells induced to express red fluorescent protein (fluorescence distribution histograms)” value with AlkR protein [1] (1% (v/v) alkane, 0 vs 6 h after induction, FIGS. 9A-9F) is on record as “more E. coli cells were induced to express the red fluorescent protein”. Further, the “induction of cytochrome P450 with oxidative activity (1-octanol production, gas chromatogram)” value in the data set with CYP153A operon [4] is “additional peak at the retention time of 1-octanol”.

Consider `CCCCCCCCCCCCCC` [n-tetradecane], for which the “expression of red fluorescent protein (mean fluorescence intensity) compared to no rhamnose addition” value with AlkR protein [3] was “induced significantly more expression of the red fluorescent protein”. Besides, in the data set with AlkR protein [3] (psb3C5-rha-weak alkL plasmid, 0.01% rhamnose 3 h then 1% (v/v) alkane 6 h, FIG. 15), the “expression of red fluorescent protein in E. coli cells expressing both AlkL and AlkR proteins vs control groups” value was “more effective in inducing the expression of red fluorescent protein”.

With `C[C@H](O)[C@H](O)[C@@H](O)[C@@H](O)C=O` [rhamnose, reference compound], in the data set with AlkR protein [3], the “expression of red fluorescent protein (mean fluorescence intensity) compared to no rhamnose addition” value was “induced significantly more expression of the red fluorescent protein”.
